Data from patent US11382900B2, “Composition for preventing or treating sleep disorders” (AMOREPACIFIC CORPORATION, priority 2017, dated 2022).
Where two headings read alike, the source gives them in different places.

Columns and labels:
[1] = design: species or system C57BL/6 mice; conditions: in vivo; for increase in body temperature: C57BL/6, mouse, 2 h; for concentration dependence of body temperature increase: mouse
Experimental: As described above, AMG 517, a representative reference drug as a TRPV1 antagonist, and the compound of Formula 1 of the present invention were tested for the increase in body temperature during transdermal administration.

[2] = Change in body temperature after oral administration (nonclinical); format: in vivo, Balb/c mice; conditions: for change in body temperature, dose dependence: up to 4 hours, AMG 517 0.03, 0.1, 0.3 mg/kg, compound of Formula 1 3, 10, 30 mg/kg
Excerpt: Meanwhile, when the same drug was orally administered, a concentration-dependent increase in body temperature due to TRPV1 antagonism was observed as expected (see FIGS. 2A and 2B).

[3] = rats, oral dose of 3 mg/kg; cited from earlier work
TRPV1 = molecular target: T1, TRPV1 (Rattus norvegicus, UniProt O35433); conditions: rats; cited from earlier work
T1 construct: host or cells: living rats (endogenous protein)
T1 sequence (O35433 whole entry): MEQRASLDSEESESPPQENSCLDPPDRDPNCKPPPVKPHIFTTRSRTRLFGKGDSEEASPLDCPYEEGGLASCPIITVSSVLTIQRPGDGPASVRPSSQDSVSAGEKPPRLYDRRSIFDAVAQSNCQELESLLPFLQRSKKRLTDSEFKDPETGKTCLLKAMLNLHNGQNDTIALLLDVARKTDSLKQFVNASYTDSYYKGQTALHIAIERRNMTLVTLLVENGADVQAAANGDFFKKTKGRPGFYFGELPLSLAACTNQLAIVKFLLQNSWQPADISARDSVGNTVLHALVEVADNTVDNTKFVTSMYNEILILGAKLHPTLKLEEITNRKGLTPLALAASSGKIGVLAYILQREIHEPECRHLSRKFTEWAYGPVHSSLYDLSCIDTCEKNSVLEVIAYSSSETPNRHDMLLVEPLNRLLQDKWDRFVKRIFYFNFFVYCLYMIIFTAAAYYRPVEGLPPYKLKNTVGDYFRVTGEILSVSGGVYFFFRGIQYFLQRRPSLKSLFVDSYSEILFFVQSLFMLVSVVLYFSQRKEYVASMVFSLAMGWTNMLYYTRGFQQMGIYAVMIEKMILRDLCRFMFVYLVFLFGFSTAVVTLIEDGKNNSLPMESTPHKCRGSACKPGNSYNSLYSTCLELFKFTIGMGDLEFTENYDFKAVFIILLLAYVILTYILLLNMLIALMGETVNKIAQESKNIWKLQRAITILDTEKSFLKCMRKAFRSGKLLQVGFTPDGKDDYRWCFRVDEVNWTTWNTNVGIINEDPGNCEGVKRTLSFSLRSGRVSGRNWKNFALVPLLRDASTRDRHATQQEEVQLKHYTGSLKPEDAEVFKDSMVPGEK

[4] = oral administration for treatment of dental pain; cited from earlier work

| increase in body temperature [1] [°C] | change in body temperature at lowest dose ([2]; 0.03 mg/kg) | Structure (SMILES) | concentration dependence of body temperature increase [1] | change in body temperature, dose dependence [2] | increase in body temperature [3] | effective concentration to maximize analgesic efficacy (TRPV1) | body temperature raised in human [4] | hyperthermia side effect [4] |
| --- | --- | --- | --- | --- | --- | --- | --- | --- |
| ~1.59 | significantly increased body temperature | CC(=O)Nc1nc2c(Oc3cc(-c4ccc(C(F)(F)F)cc4)ncn3)cccc2s1 [AMG 517] | significant concentration-dependent increase in body temperature | increased body temperature in a dose—dependent manner | about 1.3 °C | less than 0.3 mg/kg | up to 40 °C | concentration-dependent side effect of hyperthermia |
| ~0.84 |  | CCCc1nc(C(F)(F)F)ccc1/C=C/C(=O)N[C@H](C)c1cc(F)c(NS(C)(=O)=O)c(F)c1 [compound of Formula 1] | no concentration dependence was observed | increased body temperature in a dose—dependent manner |  |  |  |  |
